For 22 compounds, MIC and minimal effective concentration results are on record in patent US11512079B2, “Heterocycle substituted pyridine derivative antifungal agents” (Amplyx Pharmaceuticals, Inc., priority 2017, dated 2022).

Holding throughout (assay type): cell-based
Assay [1] has as its system Cryptococcus neoformans H99. As to the kind of experiment: In vitro antifungal assay (Example IX), microdilution broth, MIC. The conditions noted are these: minimum inhibitory concentration (≥50% inhibition), 35° C., 72 h, RPMI1640. Put shortly: (§1)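 Yeast inocula (2.5×10^3 cells/mL, RPMI1640) were exposed to twofold compound series reaching 2-0.0019 μg/mL final, per CLSI yeast methodology. Incubation at 35° C. ran 40-48 h for Candida albicans 90028 and 72 h for Cryptococcus neoformans H99. MIC endpoints were confirmed by absorbance at 600 nm.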

The subject of a further assay is Candida albicans 90028. The assay is described as above. As to conditions: minimum inhibitory concentration (≥50% inhibition), 35° C., 40-48 h, RPMI1640. Put shortly:
as §1

The next assay has as its system Cryptococcus gattii. The assay is described as above. As to conditions: minimum inhibitory concentration (≥50% inhibition), 35° C., 72 h (Cryptococcus), RPMI1640. Put shortly:
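MIC was determined from OD600 after 72 h at 35 °C for Cryptococcus, in RPMI1640 inoculated at 2.5×10^3 cells/mL. Compounds were tested as a 2-fold series from 2 to 0.0019 μg/mL final, added from DMSO intermediates at a 100-fold dilution.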

For assay [2], the system named is Rhizomucor pusillus 46342. Put plainly: In vitro antifungal assay (Example IX), microdilution broth, MEC. The conditions noted are these: minimum effective concentration (shortening of hyphae), 35° C., 40-48 h, RPMI1640. Put shortly:
(§2)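 Read-out is the minimum effective concentration: lowest compound level causing shorter hyphae than in DMSO controls, echinocandin-style. Broth microdilution used conidia or spores harvested from agar plates, cleared of mycelium and clumps, at a final 1-2×10^4 spores/mL in RPMI1640.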
On the technique in general: Dilution methods test growth across graded concentrations, often in twofold steps.

The test system of assay [3] is Aspergillus fumigatus MYA3626. The description is as above. The conditions noted are these: minimum effective concentration (shortening of hyphae), 35° C., 40-48 h, RPMI1640. Put shortly: as §2

Converted amounts (≈) assume the structure as drawn.

The MIC is the lowest concentration found to suppress growth. A higher MIC goes with weaker potency. As a reminder, the minimal effective concentration is the smallest amount tested that counted as effective. Higher therefore signals weaker potency. `Nc1ncccc1-c1cc(Cc2ccc(COc3cccc(F)n3)cc2)no1` [compound 137, 3-(3-(4-(((6-fluoropyridin-2-yl)oxy)methyl)benzyl)isoxazol-5-yl)pyridin-2-amine]: the results for the MIC (in assay [1]; with Candida albicans 90028; against Cryptococcus gattii) were 0.1 to 1 µg/mL (≈ 0.266 to 2.66 µM), 0.01 to 0.1 µg/mL (≈ 0.0266 to 0.266 µM) and 0.01 to 0.1 µg/mL (≈ 0.0266 to 0.266 µM), respectively. The minimal effective concentration is > 1 µg/mL in assay [2] and 0.01 to 0.1 µg/mL in assay [3].

In the case of `Nc1ncccc1-c1cc(Cc2ccc(OCCc3ccccc3)nc2)no1` [compound 78, 3-(3-((6-phenethoxypyridin-3-yl)methyl)isoxazol-5-yl)pyridin-2-amine], the MIC (in assay [1]; in the assay on Candida albicans 90028; in the assay on Cryptococcus gattii) was 0.01 to 0.1 µg/mL (≈ 0.0269 to 0.269 µM) each time. The minimal effective concentration in assay [2] and in assay [3] was 0.1 to 1 µg/mL throughout.

Regarding `Nc1ncccc1-c1cc(Cc2ccc(OCCc3ccccn3)nc2)no1` [compound 39, 3-(3-((6-(2-(pyridin-2-yl)ethoxy)pyridin-3-yl)methyl)isoxazol-5-yl)pyridin-2-amine], the MIC (in assay [1]; against Candida albicans 90028; with Cryptococcus gattii) was 0.1 to 1 µg/mL (≈ 0.268 to 2.68 µM) in each case. Moreover, the results for the minimal effective concentration in assay [2] and in assay [3] were > 1 µg/mL and 0.1 to 1 µg/mL, respectively.

With `Cc1cc(COc2ccc(Cc3cc(-c4cccnc4N)on3)cc2)no1` [compound 26, 3-(3-(4-((5-methylisoxazol-3-yl)methoxy)benzyl)isoxazol-5-yl)pyridin-2-amine], the MIC (in assay [1]; in the assay on Candida albicans 90028; against Cryptococcus gattii) was 0.1 to 1 µg/mL (≈ 0.276 to 2.76 µM) throughout. Also, the results for the minimal effective concentration in assay [2] and in assay [3] were > 1 µg/mL and 0.01 to 0.1 µg/mL, respectively.

Consider `Nc1ncccc1-c1cc(Cc2ccc(CNc3ccc(F)c(F)c3F)cc2)no1` [compound 193, 3-(3-(4-(((2,3,4-trifluorophenyl)amino)methyl)benzyl)isoxazol-5-yl)pyridin-2-amine], for which the MIC (in assay [1]; against Candida albicans 90028; in the assay with Cryptococcus gattii) was 0.1 to 1 µg/mL (≈ 0.244 to 2.44 µM) throughout. Further, the minimal effective concentration in assay [2] lay within 0.1 to 1 µg/mL; in assay [3], 0.01 to 0.1 µg/mL.

`Nc1ncccc1-c1cc(Cc2ccc(OCc3ccncc3)nc2)no1` [compound 37, 3-(3-((6-(pyridin-4-ylmethoxy)pyridin-3-yl)methyl)isoxazol-5-yl)pyridin-2-amine]: the MIC in assay [1] was ≤ 0.01 µg/mL; in the assay on Candida albicans 90028, 0.01 to 0.1 µg/mL (≈ 0.0278 to 0.278 µM); in the assay on Cryptococcus gattii, ≤ 0.01 µg/mL. Also, the minimal effective concentration was > 1 µg/mL in assay [2] and 0.01 to 0.1 µg/mL in assay [3].

Take `Nc1ncccc1-c1cc(Cc2cnc(Nc3c(F)cccc3F)c(F)c2)no1` [compound 253, 5-((5-(2-aminopyridin-3-yl)isoxazol-3-yl)methyl)-N-(2,6-difluorophenyl)-3-fluoropyridin-2-amine]: the MIC (in assay [1]; with Candida albicans 90028; with Cryptococcus gattii) was 0.1 to 1 µg/mL (≈ 0.252 to 2.52 µM) throughout. In addition, the minimal effective concentration in assay [2] is > 1 µg/mL; in assay [3], 0.1 to 1 µg/mL.

For `Nc1ncccc1-c1cc(Cc2ccc(-c3ccc(F)cc3)nc2)no1` [compound 205, 3-(3-((6-(4-fluorophenyl)pyridin-3-yl)methyl)isoxazol-5-yl)pyridin-2-amine], the MIC in assay [1] was 0.1 to 1 µg/mL (≈ 0.289 to 2.89 µM); in the assay on Candida albicans 90028, 0.1 to 1 µg/mL (≈ 0.289 to 2.89 µM); against Cryptococcus gattii it was > 1 µg/mL. Further, the figures for the minimal effective concentration in assay [2] and in assay [3] were 0.1 to 1 µg/mL and > 1 µg/mL, respectively.

As to `Nc1ncccc1-c1cc(Cc2ccnc(OCCc3cccc(F)c3)c2)no1` [Example 146, 3-(3-((2-(3-fluorophenethoxy)pyridin-4-yl)methyl)isoxazol-5-yl)pyridin-2-amine], the MIC (in assay [1]; with Candida albicans 90028; against Cryptococcus gattii) was 0.1 to 1 µg/mL (≈ 0.256 to 2.56 µM) each time. Further, the minimal effective concentration in assay [2] and in assay [3] was > 1 µg/mL throughout.

For the compound `Cc1cc(COc2ccc(Cc3cc(-c4cccnc4N)on3)cn2)no1` [compound 38, 3-(3-((6-((5-methylisoxazol-3-yl)methoxy)pyridin-3-yl)methyl)isoxazol-5-yl)pyridin-2-amine], the MIC (in assay [1]; against Candida albicans 90028; in the assay with Cryptococcus gattii) was 0.1 to 1 µg/mL (≈ 0.275 to 2.75 µM) in each case. Besides, the minimal effective concentration in assay [2] lay in the range of 0.1 to 1 µg/mL; in assay [3] it was 0.01 to 0.1 µg/mL.

As for `Nc1ncccc1-c1cc(Cc2ccc(OCc3ccccn3)nc2)no1` [compound 35, 3-(3-((6-(pyridin-2-ylmethoxy)pyridin-3-yl)methyl)isoxazol-5-yl)pyridin-2-amine], the MIC (in assay [1]; with Candida albicans 90028; against Cryptococcus gattii) was 0.01 to 0.1 µg/mL (≈ 0.0278 to 0.278 µM) in each case. In addition, the minimal effective concentration in assay [2] was > 1 µg/mL; in assay [3] it was 0.01 to 0.1 µg/mL.

As for `Nc1ncccc1-c1cc(Cc2ccc(OCc3ccco3)nc2)no1` [compound 73, 3-(3-((6-(furan-2-ylmethoxy)pyridin-3-yl)methyl)isoxazol-5-yl)pyridin-2-amine], the MIC in assay [1] is > 1 µg/mL; against Candida albicans 90028, 0.01 to 0.1 µg/mL (≈ 0.0287 to 0.287 µM); against Cryptococcus gattii it was > 1 µg/mL. Moreover, the results for the minimal effective concentration in assay [2] and in assay [3] were > 1 µg/mL and 0.1 to 1 µg/mL, respectively.

For the compound `Nc1ncccc1-c1cc(Cc2ccc(C(O)c3ccccc3)cc2)no1` (centres unmarked) [compound 22, (4-((5-(2-aminopyridin-3-yl)isoxazol-3-yl)methyl)phenyl) (phenyl)methanol], the values for the MIC (in assay [1]; with Candida albicans 90028; in the assay with Cryptococcus gattii) were 0.1 to 1 µg/mL (≈ 0.28 to 2.8 µM), 0.1 to 1 µg/mL (≈ 0.28 to 2.8 µM) and 0.01 to 0.1 µg/mL (≈ 0.028 to 0.28 µM), respectively. For the same compound, the minimal effective concentration was > 1 µg/mL in assay [2] and 0.1 to 1 µg/mL in assay [3].

As to `Nc1ncccc1-c1cc(Cc2ccc(COC3CCCCC3)cc2)no1` [compound 23, 3-(3-(4-((cyclohexyloxy)methyl)benzyl)isoxazol-5-yl)pyridin-2-amine], the minimal inhibitory concentration (MIC) in assay [1] fell in the range of 0.1 to 1 µg/mL (≈ 0.275 to 2.75 µM); in the assay on Candida albicans 90028 it was 0.1 to 1 µg/mL (≈ 0.275 to 2.75 µM); against Cryptococcus gattii, 0.01 to 0.1 µg/mL (≈ 0.0275 to 0.275 µM). Moreover, the minimal effective concentration in assay [2] and in assay [3] was 0.1 to 1 µg/mL in each case.

Regarding `Nc1ncccc1-c1cc(Cc2ccc(/C=C/C3CCCCC3)cc2)no1` [compound 99, (E)-3-(3-(4-(2-cyclohexylvinyl)benzyl)isoxazol-5-yl)pyridin-2-amine], the MIC in assay [1] is 0.1 to 1 µg/mL (≈ 0.278 to 2.78 µM); with Candida albicans 90028, > 1 µg/mL; against Cryptococcus gattii, 0.1 to 1 µg/mL (≈ 0.278 to 2.78 µM). Also, the values for the minimal effective concentration in assay [2] and in assay [3] were > 1 µg/mL and 0.1 to 1 µg/mL, respectively.

As to `Nc1ncccc1-c1cc(Cc2ccc(Oc3nc(Cl)cs3)cc2)no1` [compound 240, 3-(3-(4-((4-chlorothiazol-2-yl)oxy)benzyl)isoxazol-5-yl)pyridin-2-amine], the MIC was 0.01 to 0.1 µg/mL (≈ 0.026 to 0.26 µM) in assay [1], 0.1 to 1 µg/mL (≈ 0.26 to 2.6 µM) against Candida albicans 90028 and 0.01 to 0.1 µg/mL (≈ 0.026 to 0.26 µM) against Cryptococcus gattii. Besides, the minimal effective concentration in assay [2] and in assay [3] was 0.1 to 1 µg/mL throughout.

Consider `CC(C)=CCOc1ccc(Cc2cc(-c3ccc(N)nc3N)on2)cc1` [compound 135, 3-(3-(4-((3-methylbut-2-en-1-yl)oxy)benzyl)isoxazol-5-yl)pyridine-2,6-diamine], for which the values for the MIC (in assay [1]; against Candida albicans 90028; in the assay on Cryptococcus gattii) were 0.01 to 0.1 µg/mL (≈ 0.0285 to 0.285 µM), 0.1 to 1 µg/mL (≈ 0.285 to 2.85 µM) and 0.1 to 1 µg/mL (≈ 0.285 to 2.85 µM), respectively. In addition, the minimal effective concentration lay within 0.1 to 1 µg/mL in assay [2] and 0.01 to 0.1 µg/mL in assay [3].

On to `Nc1ncccc1-c1cc(Cc2ccc(Cc3cc(F)nc(F)c3)cc2)no1` [compound 261, 3-(3-(4-((2,6-difluoropyridin-4-yl)methyl)benzyl)isoxazol-5-yl)pyridin-2-amine], for which the MIC (in assay [1]; with Candida albicans 90028; in the assay on Cryptococcus gattii) was 0.1 to 1 µg/mL (≈ 0.264 to 2.64 µM) each time. Also, the minimal effective concentration in assay [2] and in assay [3] was 0.1 to 1 µg/mL throughout.

Regarding `Nc1ncccc1-c1cc(Cc2ccc(Nc3ccccc3)nc2)no1` [compound 58, 5-((5-(2-aminopyridin-3-yl)isoxazol-3-yl)methyl)-N-phenylpyridin-2-amine], the MIC in assay [1] is 0.1 to 1 µg/mL (≈ 0.291 to 2.91 µM); in the assay on Candida albicans 90028, 0.01 to 0.1 µg/mL (≈ 0.0291 to 0.291 µM); against Cryptococcus gattii, 0.01 to 0.1 µg/mL (≈ 0.0291 to 0.291 µM). Also, the minimal effective concentration in assay [2] and in assay [3] was 0.1 to 1 µg/mL throughout.

In the case of `Nc1ncccc1-c1cc(Cc2ccc(Cc3cccc(F)c3)cc2)no1` [compound 208, 3-(3-(4-(3-fluorobenzyl)benzyl)isoxazol-5-yl)pyridin-2-amine], the MIC (in assay [1]; in the assay on Candida albicans 90028; against Cryptococcus gattii) was 0.01 to 0.1 µg/mL (≈ 0.0278 to 0.278 µM) throughout. The minimal effective concentration in assay [2] lay in the range of 0.1 to 1 µg/mL; in assay [3] it was 0.01 to 0.1 µg/mL.

Consider `Nc1ncccc1-c1cc(Cc2ccc(Cc3cnoc3)cc2)no1` [compound 14, 3-(3-(4-(isoxazol-4-ylmethyl)benzyl)isoxazol-5-yl)pyridin-2-amine], for which the MIC (in assay [1]; against Candida albicans 90028; against Cryptococcus gattii) was 0.1 to 1 µg/mL (≈ 0.301 to 3.01 µM) each time. Besides, the minimal effective concentration was 0.1 to 1 µg/mL in assay [2] and 0.01 to 0.1 µg/mL in assay [3].

On to `Nc1ncccc1-c1cc(Cc2ccc(Oc3ccc(F)cn3)cc2)no1` [compound 246, 3-(3-(4-((5-fluoropyridin-2-yl)oxy)benzyl)isoxazol-5-yl)pyridin-2-amine], for which the figures for the MIC (in assay [1]; in the assay on Candida albicans 90028; against Cryptococcus gattii) were 0.01 to 0.1 µg/mL (≈ 0.0276 to 0.276 µM), 0.1 to 1 µg/mL (≈ 0.276 to 2.76 µM) and 0.1 to 1 µg/mL (≈ 0.276 to 2.76 µM), respectively. The minimal effective concentration in assay [2] lay within 0.1 to 1 µg/mL; in assay [3], 0.01 to 0.1 µg/mL.
